{"source": "ChEMBL document CHEMBL3797052", "about": "(Eur J Med Chem, 2016)", "data": [{"tested_on": "not listed separately", "assay": "Antiproliferative activity against human SNB19 cells assessed as cell growth at 10^-5 M after 48 hrs by sulforhodamine B assay", "format": "functional", "details": "SNB-19, 48 h, read-out: Activity", "units": {"growth at 10 µM": "%"}, "values": [{"smiles": "CNC(=O)c1cc(Oc2ccc3nc(NC(=O)c4cc(C(F)(F)F)cc(C(F)(F)F)c4)sc3c2)ccn1", "growth at 10 µM": 16}]}, {"tested_on": "not listed separately", "assay": "Antiproliferative activity against human SF295 cells assessed as cell growth at 10^-5 M after 48 hrs by sulforhodamine B assay", "format": "functional", "details": "SF-295, 48 h, read-out: Activity", "units": {"growth at 10 µM": "%"}, "values": [{"smiles": "CNC(=O)c1cc(Oc2ccc3nc(NC(=O)c4cc(C(F)(F)F)cc(C(F)(F)F)c4)sc3c2)ccn1", "growth at 10 µM": 1}]}, {"tested_on": "not listed separately", "assay": "Antiproliferative activity against human OVCAR5 cells assessed as cell growth at 10^-5 M after 48 hrs by sulforhodamine B assay", "format": "functional", "details": "OVCAR-5, 48 h, read-out: Activity", "units": {"growth at 10 µM": "%"}, "values": [{"smiles": "CNC(=O)c1cc(Oc2ccc3nc(NC(=O)c4cc(C(F)(F)F)cc(C(F)(F)F)c4)sc3c2)ccn1", "growth at 10 µM": 32}]}, {"tested_on": "NCI-H322M", "assay": "Antiproliferative activity against human NCI-H322M cells assessed as cell growth at 10^-5 M after 48 hrs by sulforhodamine B assay", "format": "functional", "details": "read-out: Activity", "units": {"growth at 10 µM": "%"}, "values": [{"smiles": "CNC(=O)c1cc(Oc2ccc3nc(NC(=O)c4cc(C(F)(F)F)cc(C(F)(F)F)c4)sc3c2)ccn1", "growth at 10 µM": 18}]}, {"tested_on": "U-251", "assay": "Antiproliferative activity against human U251 cells assessed as cell growth at 10^-5 M after 48 hrs by sulforhodamine B assay", "format": "functional", "details": "U-251, 48 h, read-out: Activity", "units": {"growth at 10 µM": "%"}, "values": [{"smiles": "CNC(=O)c1cc(Oc2ccc3nc(NC(=O)c4cc(C(F)(F)F)cc(C(F)(F)F)c4)sc3c2)ccn1", "growth at 10 µM": 12}]}, {"tested_on": "MCF7", "assay": "Antiproliferative activity against human MCF7 cells assessed as cell growth at 10^-6 M after 48 hrs by sulforhodamine B assay", "format": "functional", "details": "MCF7, 48 h, read-out: Activity", "units": {"growth at 1 µM": "%"}, "values": [{"smiles": "CNC(=O)c1cc(Oc2ccc3nc(NC(=O)c4cc(C(F)(F)F)cc(C(F)(F)F)c4)sc3c2)ccn1", "growth at 1 µM": 87}]}, {"tested_on": "EKVX", "assay": "Antiproliferative activity against human EKVX cells assessed as cell growth at 10^-5 M after 48 hrs by sulforhodamine B assay", "format": "functional", "details": "read-out: Activity", "units": {"growth at 10 µM": "%"}, "values": [{"smiles": "CNC(=O)c1cc(Oc2ccc3nc(NC(=O)c4cc(C(F)(F)F)cc(C(F)(F)F)c4)sc3c2)ccn1", "growth at 10 µM": 15}]}, {"tested_on": "not listed separately", "assay": "Antiproliferative activity against human OVCAR3 cells assessed as cell growth at 10^-8 M after 48 hrs by sulforhodamine B assay", "format": "functional", "details": "OVCAR-3, 48 h, read-out: Activity", "units": {"growth at 0.01 µM": "%"}, "values": [{"smiles": "CNC(=O)c1cc(Oc2ccc3nc(NC(=O)c4cc(C(F)(F)F)cc(C(F)(F)F)c4)sc3c2)ccn1", "growth at 0.01 µM": 104}]}, {"tested_on": "not listed separately", "assay": "Antiproliferative activity against human HL-60(TB) cells assessed as cell growth at 10^-5 M after 48 hrs by sulforhodamine B assay", "format": "functional", "details": "HL-60, 48 h, read-out: Activity", "units": {"growth at 10 µM": "%"}, "values": [{"smiles": "CNC(=O)c1cc(Oc2ccc3nc(NC(=O)c4cc(C(F)(F)F)cc(C(F)(F)F)c4)sc3c2)ccn1", "growth at 10 µM": -47}]}, {"tested_on": "not listed separately", "assay": "Antiproliferative activity against human UACC62 cells assessed as cell growth at 10^-4 M after 48 hrs by sulforhodamine B assay", "format": "functional", "details": "UACC-62, 48 h, read-out: Activity", "units": {"growth at 100 µM": "%"}, "values": [{"smiles": "CNC(=O)c1cc(Oc2ccc3nc(NC(=O)c4cc(C(F)(F)F)cc(C(F)(F)F)c4)sc3c2)ccn1", "growth at 100 µM": -56}]}, {"tested_on": "not listed separately", "assay": "Antiproliferative activity against human SW620 cells assessed as cell growth at 10^-5 M after 48 hrs by sulforhodamine B assay", "format": "functional", "details": "SW-620, 48 h, read-out: Activity", "units": {"growth at 10 µM": "%"}, "values": [{"smiles": "CNC(=O)c1cc(Oc2ccc3nc(NC(=O)c4cc(C(F)(F)F)cc(C(F)(F)F)c4)sc3c2)ccn1", "growth at 10 µM": 42}]}, {"tested_on": "K562", "assay": "Antiproliferative activity against human K562 cells assessed as cell growth at 10^-5 M after 48 hrs by sulforhodamine B assay", "format": "functional", "details": "K562, 48 h, read-out: Activity", "units": {"growth at 10 µM": "%"}, "values": [{"smiles": "CNC(=O)c1cc(Oc2ccc3nc(NC(=O)c4cc(C(F)(F)F)cc(C(F)(F)F)c4)sc3c2)ccn1", "growth at 10 µM": 7}]}, {"tested_on": "not listed separately", "assay": "Antiproliferative activity against human OVCAR3 cells assessed as growth inhibition after 48 hrs by sulforhodamine B assay", "format": "functional", "details": "OVCAR-3, 48 h", "units": {"GI50": "µM", "LC50": "µM", "TGI": "µM"}, "values": [{"smiles": "CNC(=O)c1cc(Oc2ccc3nc(NC(=O)c4cc(C(F)(F)F)cc(C(F)(F)F)c4)sc3c2)ccn1", "GI50": 2.32, "LC50": 32.3, "TGI": 6.64}]}, {"tested_on": "not listed separately", "assay": "Antiproliferative activity against human DU145 cells assessed as cell growth at 10^-5 M after 48 hrs by sulforhodamine B assay", "format": "functional", "details": "DU-145, 48 h, read-out: Activity", "units": {"growth at 10 µM": "%"}, "values": [{"smiles": "CNC(=O)c1cc(Oc2ccc3nc(NC(=O)c4cc(C(F)(F)F)cc(C(F)(F)F)c4)sc3c2)ccn1", "growth at 10 µM": 16}]}, {"tested_on": "not listed separately", "assay": "Antiproliferative activity against human BT549 cells assessed as cell growth at 10^-7 M after 48 hrs by sulforhodamine B assay", "format": "functional", "details": "BT-549, 48 h, read-out: Activity", "units": {"growth at 0.1 µM": "%"}, "values": [{"smiles": "CNC(=O)c1cc(Oc2ccc3nc(NC(=O)c4cc(C(F)(F)F)cc(C(F)(F)F)c4)sc3c2)ccn1", "growth at 0.1 µM": 86}]}, {"tested_on": "not listed separately", "assay": "Antiproliferative activity against human HCT116 cells assessed as cell growth at 10^-5 M after 48 hrs by sulforhodamine B assay", "format": "functional", "details": "HCT-116, 48 h, read-out: Activity", "units": {"growth at 10 µM": "%"}, "values": [{"smiles": "CNC(=O)c1cc(Oc2ccc3nc(NC(=O)c4cc(C(F)(F)F)cc(C(F)(F)F)c4)sc3c2)ccn1", "growth at 10 µM": 7}]}, {"tested_on": "not listed separately", "assay": "Antiproliferative activity against human HCC2998 cells assessed as cell growth at 10^-5 M after 48 hrs by sulforhodamine B assay", "format": "functional", "details": "HCC 2998, 48 h, read-out: Activity", "units": {"growth at 10 µM": "%"}, "values": [{"smiles": "CNC(=O)c1cc(Oc2ccc3nc(NC(=O)c4cc(C(F)(F)F)cc(C(F)(F)F)c4)sc3c2)ccn1", "growth at 10 µM": 39}]}, {"tested_on": "MDA-MB-435", "assay": "Antiproliferative activity against human MDA-MB-435 cells assessed as cell growth at 10^-5 M after 48 hrs by sulforhodamine B assay", "format": "functional", "details": "MDA-MB-435, 48 h, read-out: Activity", "units": {"growth at 10 µM": "%"}, "values": [{"smiles": "CNC(=O)c1cc(Oc2ccc3nc(NC(=O)c4cc(C(F)(F)F)cc(C(F)(F)F)c4)sc3c2)ccn1", "growth at 10 µM": 7}]}, {"tested_on": "not listed separately", "assay": "Antiproliferative activity against human NCI-ADR-RES cells assessed as cell growth at 10^-5 M after 48 hrs by sulforhodamine B assay", "format": "functional", "details": "read-out: Activity", "units": {"growth at 10 µM": "%"}, "values": [{"smiles": "CNC(=O)c1cc(Oc2ccc3nc(NC(=O)c4cc(C(F)(F)F)cc(C(F)(F)F)c4)sc3c2)ccn1", "growth at 10 µM": 15}]}, {"tested_on": "MDA-MB-468", "assay": "Antiproliferative activity against human MDA-MB-468 cells assessed as cell growth at 10^-5 M after 48 hrs by sulforhodamine B assay", "format": "functional", "details": "MDA-MB-468, 48 h, read-out: Activity", "units": {"growth at 10 µM": "%"}, "values": [{"smiles": "CNC(=O)c1cc(Oc2ccc3nc(NC(=O)c4cc(C(F)(F)F)cc(C(F)(F)F)c4)sc3c2)ccn1", "growth at 10 µM": 5}]}]}
